Test results reported in US9145399B2, “Substituted bicyclic triazole derivatives as gamma secretase modulators” (Janssen Pharmaceuticals, Inc., priority 2010, dated 2015).

Key:
Aβ42 = experiment: Screening for γ-secretase-modulating activity in SKNBE2 cells carrying APP 695 wild type: Aβ42 in cell supernatant (Alphalisa); type: cell-based; details: Homo sapiens, SKNBE2, SKNBE2 cells carrying APP 695 wild type, overnight incubation
Procedure: (§1) Pharmacology A) Screening of the Compounds of the Invention for γ-Secretase-Modulating Activity
(§2) Screening was carried out using SKNBE2 cells carrying the APP 695—wild type, grown in Dulbecco's Modified Eagle's Medium/Nutrient mixture F-12 (DMEM/NUT-mix F-12) (HAM) provided by Invitrogen (cat no. 10371-029) containing 5% Serum/Fe supplemented with 1% non-essential amino acids, 1-glutamine 2 mM, Hepes 15 mM, penicillin 50 U/ml (units/ml) en streptomycin 50 μg/ml. Cells were grown to near confluency.
(§3) The screening was performed using a modification of the assay as described in Citron et al (1997) Nature Medicine 3: 67. Briefly, cells were plated in a 384-well plate at 10^4 cells/well in Ultraculture (Lonza, BE12-725F) supplemented with 1% glutamine (Invitrogen, 25030-024), 1% non-essential amino acid (NEAA), penicillin 50 U/ml en streptomycin 50 μg/ml in the presence of test compound at different test concentrations. The cell/compound mixture was incubated overnight at 37° C., 5% CO2. The next day the media were assayed by two sandwich immuno-assays, for Aβ42 and Aβtotal.
(§4) Aβtotal and Aβ42 concentrations were quantified in the cell supernatant using the Aphalisa technology (Perkin Elmer). Alphalisa is a sandwich assay using biotinylated antibody attached to streptavidin coated donorbeads and antibody conjugated to acceptor beads. In the presence of antigen, the beads come into close proximity. The excitation of the donor beads provokes the release of singlet oxygen molecules that trigger a cascade of energy transfer in the acceptor beads, resulting in light emission. To quantify the amount of Aβ42 in the cell supernatant, monoclonal antibody specific to the C-terminus of Aβ42 (JRF/cAβ42/26) was coupled to the receptor beads and biotinylated antibody specific to the N-terminus of Aβ (JRF/AβN/25) was used to react with the donor beads. T quantify the amount of Aβtotal in the cell supernatant, monoclonal antibody specific to the N-terminus of Aβ (JRF/AβN/25) was coupled to the receptor beads and biotinylated antibody specific to the mid region of Aβ (biotinylated 4G8) was used to react with the donor beads.
(§5) To obtain the values reported in Table 3, the data are calculated as percentage of the maximum amount of amyloid Beta 42 measured in the absence of the test compound. The sigmoidal dose response curves were analyzed using non-linear regression analysis with percentage of the control plotted against the log concentration of the compound. A 4-parameter equation was used to determine the IC50.

Aβtotal = experiment: Screening for γ-secretase-modulating activity in SKNBE2 cells carrying APP 695 wild type: Aβtotal in cell supernatant (Alphalisa); type: cell-based; details: Homo sapiens, overnight incubation
Procedure: as §1, §2, §3, §4, §5

| Compound | melting point [°C] | IC50 (Aβ42) [nM] | IC50 (Aβtotal) [nM] |
| --- | --- | --- | --- |
| FC(F)(F)c1ccccc1C1CCCn2nc(Nc3ccc(-c4ccncc4)cc3)nc21 (stereo not drawn) [Compound 75, 5,6,7,8-tetrahydro-N-[4-(4-pyridinyl)phenyl]-8-[2-(trifluoromethyl)phenyl]-[1,2,4]triazolo[1,5-a]pyridin-2-amine] | 240.4 | 257 | > 10000 |
| COc1cc(Nc2nc3n(n2)CCCC3c2cccc(F)c2)ccc1-n1cnc(C)c1 (stereo not drawn) [Compound 30, 8-(3-fluorophenyl)-5,6,7,8-tetrahydro-N-[3-methoxy-4-(4-methyl-1H-imidazol-1-yl)phenyl]-[1,2,4]triazolo[1,5-a]pyridin-2-amine] | 200.6 | 49 | > 10000 |
| COc1cc(Nc2nc3n(n2)CCCC3c2ccccc2F)ccc1-n1cnc(C)c1 (stereo not drawn) [Compound 49, 8-(2-fluorophenyl)-5,6,7,8-tetrahydro-N-[3-methoxy-4-(4-methyl-1H-imidazol-1-yl)phenyl]-[1,2,4]triazolo[1,5-a]pyridin-2-amine] | 188.3 | 29 | > 10000 |
| COc1cc(Nc2nc3n(n2)CCCC3c2cccc(C(F)(F)F)c2)ccc1-n1cnc(C)c1 (stereo not drawn) [Compound 34, 5,6,7,8-tetrahydro-N-[3-methoxy-4-(4-methyl-1H-imidazol-1-yl)phenyl]-8-[3-(trifluoromethyl)phenyl]-[1,2,4]triazolo[1,5-a]pyridin-2-amine] | 224.9 | 10 | 7590 |
| COc1cc(C2CCCn3nc(Nc4ccc(-c5ccnc(C)c5)cc4)nc32)ccc1F (stereo not drawn) [Compound 106, 8-(4-fluoro-3-methoxyphenyl)-5,6,7,8-tetrahydro-N-[4-(2-methyl-4-pyridinyl)phenyl]-[1,2,4]triazolo[1,5-a]pyridin-2-amine] | 150.6 | 40 | > 15000 |
| COc1cc(Nc2nc3c(-c4ccccc4Cl)cccn3n2)ccc1-c1ccnc(C)c1 [Compound 2, 8-(2-chlorophenyl)-N-[3-methoxy-4-(2-methyl-4-pyridinyl)phenyl]-[1,2,4]triazolo[1,5-a]pyridin-2-amine] | 186.7 | 7 | > 10000 |
| COc1cc(Nc2nc3c(-c4cccc(C(F)(F)F)c4)nccn3n2)ccc1-n1cnc(C)c1 [Compound 22, N-[3-methoxy-4-(4-methyl-1H-imidazol-1-yl)phenyl]-8-[3-(trifluoromethyl)phenyl]-[1,2,4]triazolo[1,5-a]pyrazin-2-amine] | 199 | 40 | 7590 |
| COc1cc(Nc2nc3n(n2)CCCC3c2cccc(F)c2)ccc1-c1ccnc(C)c1 (stereo not drawn) [Compound 44, 8-(3-fluorophenyl)-5,6,7,8-tetrahydro-N-[3-methoxy-4-(2-methyl-4-pyridinyl)phenyl]-[1,2,4]triazolo[1,5-a]pyridin-2-amine] | 170.1 | 39 | > 10000 |
| Cc1cc(-c2ccc(Nc3nc4n(n3)CCCC4c3cc(C(F)(F)F)ccc3F)cc2)ccn1 (stereo not drawn) [Compound 114, 8-[2-fluoro-5-(trifluoromethyl)phenyl]-5,6,7,8-tetrahydro-N-[4-(2-methyl-4-pyridinyl)phenyl]-[1,2,4]triazolo[1,5-a]pyridin-2-amine] | 194.4 | 41 | > 10000 |
| Cc1cc(-c2ccc(Nc3nc4c(-c5ccccc5Cl)cccn4n3)cc2)cc(C)n1 [Compound 26, 8-(2-chlorophenyl)-N-[4-(2,6-dimethyl-4-pyridinyl)phenyl]-[1,2,4]triazolo[1,5-a]pyridin-2-amine] | 228.1 | 43 | > 10000 |
| COc1cc(Nc2nc3n(n2)CCCC3c2c(F)cccc2Cl)ccc1-c1ccnc(C)c1 (stereo not drawn) [Compound 110, 8-(2-chloro-6-fluorophenyl)-5,6,7,8-tetrahydro-N-[3-methoxy-4-(2-methyl-4-pyridinyl)phenyl]-[1,2,4]triazolo[1,5-a]pyridin-2-amine] | 174 | 50 | > 10000 |

Continued, values first:

| melting point [°C] | IC50 (Aβ42) [nM] | IC50 (Aβtotal) [nM] | Compound |
| --- | --- | --- | --- |
| 122.1 | 44 | > 10000 | COc1cc(Nc2nc3n(n2)CCC(C)C3c2ccc(F)cc2)ccc1-c1ccnc(C)c1 (racemic) [Compound 101, 8-(4-fluorophenyl)-5,6,7,8-tetrahydro-N-[3-methoxy-4-(2-methyl-4-pyridinyl)phenyl]-7-methyl-[1,2,4]triazolo[1,5-a]pyridin-2-amine] |
| 204.6 | 41 | > 10000 | COc1ccc(F)c(C2CCCn3nc(Nc4ccc(-c5ccnc(C)c5)cc4)nc32)c1 (stereo not drawn) [Compound 183, 8-(2-fluoro-5-methoxyphenyl)-5,6,7,8-tetrahydro-N-[4-(2-methyl-4-pyridinyl)phenyl]-[1,2,4]triazolo[1,5-a]pyridin-2-amine] |
| 221.6 | 59 | > 10000 | COc1cccc(C2CCCn3nc(Nc4ccc(-c5ccnc(C)c5)cc4)nc32)c1 (stereo not drawn) [Compound 103, 5,6,7,8-tetrahydro-8-(3-methoxyphenyl)-N-[4-(2-methyl-4-pyridinyl)phenyl]-[1,2,4]triazolo[1,5-a]pyridin-2-amine] |
| 216.1 | 46 | > 10000 | Cc1cc(-c2ccc(Nc3nc4n(n3)CCOC4c3ccccc3Cl)cc2)ccn1 (stereo not drawn) [Compound 76, 8-(2-chlorophenyl)-5,6-dihydro-N-[4-(2-methyl-4-pyridinyl)phenyl]-8H-[1,2,4]triazolo[5,1-c][1,4]oxazin-2-amine] |
| 217.2 | 36 | > 10000 | COc1cc(Nc2nc3n(n2)CCOC3c2ccc(F)cc2F)ccc1-c1ccnc(C)c1 (stereo not drawn) [Compound 100, 8-(2,4-difluorophenyl)-5,6-dihydro-N-[3-methoxy-4-(2-methyl-4-pyridinyl)phenyl]-8H-[1,2,4]triazolo[5,1-c][1,4]oxazin-2-amine] |
| 221.5 | 23 | > 10000 | COc1ccc(F)c(C2CCCn3nc(Nc4ccc(-c5ccnc(C)c5)c(F)c4)nc32)c1 (stereo not drawn) [Compound 184, 8-(2-fluoro-5-methoxyphenyl)-N-[3-fluoro-4-(2-methyl-4-pyridinyl)phenyl]-5,6,7,8-tetrahydro-[1,2,4]triazolo[1,5-a]pyridin-2-amine] |
| 167.9 | 40 | > 10000 | COc1cc(Nc2nc3n(n2)CCCC3c2ccccc2Cl)ccc1-c1ccnc(C)c1 (stereo not drawn) [Compound 77] |
| 251 | 15 | > 10000 | Cc1cc(-c2ccc(Nc3nc4c(-c5ccccc5Cl)cccn4n3)cc2F)ccn1 [Compound 25, 8-(2-chlorophenyl)-N-[3-fluoro-4-(2-methyl-4-pyridinyl)phenyl]-[1,2,4]triazolo[1,5-a]pyridin-2-amine] |
| 175 | 5 | 5890 | COc1cc(Nc2nc3c(-c4cccc(C(F)(F)F)c4)cccn3n2)ccc1-n1cnc(C)c1 [Compound 20, N-[3-methoxy-4-(4-methyl-1H-imidazol-1-yl)phenyl]-8-[3-(trifluoromethyl)phenyl]-[1,2,4]triazolo[1,5-a]pyridin-2-amine] |
| 204.4 | 30 | 5750 | COc1cc(Nc2nc3n(n2)CCCC3c2cc(C(F)(F)F)ccc2F)ccc1-n1cnc(C)c1 (stereo not drawn) [Compound 48, 8-[2-fluoro-5-(trifluoromethyl)phenyl]-5,6,7,8-tetrahydro-N-[3-methoxy-4-(4-methyl-1H-imidazol-1-yl)phenyl]-[1,2,4]triazolo[1,5-a]pyridin-2-amine] |
| 201.9 | 21 | > 10000 | COc1cc(Nc2nc3n(n2)CCOC3c2ccc(F)cc2C)ccc1-c1ccnc(C)c1 (stereo not drawn) [Compound 92, 8-(4-fluoro-2-methylphenyl)-5,6-dihydro-N-[3-methoxy-4-(2-methyl-4-pyridinyl)phenyl]-8H-[1,2,4]triazolo[5,1-c][1,4]oxazin-2-amine] |
| 146.8 | 31 | 7080 | COc1cc(Nc2nc3n(n2)CCCC3c2cc(C(F)(F)F)ccc2C)ccc1-c1ccnc(C)c1 (stereo not drawn) [Compound 151, 5,6,7,8-tetrahydro-N-[3-methoxy-4-(2-methyl-4-pyridinyl)phenyl]-8-[2-methyl-5-(trifluoromethyl)phenyl]-[1,2,4]triazolo[1,5-a]pyridin-2-amine] |
